Measurements reported in US12564547B2, “Compositions, formulations, and methods for skin treatment” (Oddity Labs, LLC, priority 2022, dated 2026).

Tested on: human dermal fibroblasts
Experiment: Human dermal fibroblast cells (hDFC) proliferation, cell viability assay (CellTiter-Glo, manual cell counting); note: test concentration or dose not given here
Format: cell-based
Conditions: hDFCs proliferation; control is DMSO

SMILES: COc1ccc(C(=O)NC(C(=O)NC(C)Cn2ccnc2)C(C)C)cc1 (stereo not shown) [III-5, N-[1-(1-imidazol-1-ylpropan-2-ylamino)-3-methyl-1-oxobutan-2-yl]-4-methoxybenzamide]
- Activity (Percent Increase Proliferation of hFDPCs (%)): B (increased proliferation of hFDPCs equals to or larger than 1% and less than 4%)

SMILES: CCOC(Cn1ccnc1)OCC [VII-30, 1-(2,2-diethoxyethyl)imidazole]
- Activity (Percent Increase Proliferation of hFDPCs (%)): D (increased proliferation of hFDPCs equals to or larger than 8%)

SMILES: NC(=O)C1CCCc2ccccc2N1 (stereo not shown) [VII-18, 2,3,4,5-tetrahydro-1H-1-benzazepine-2-carboxamide]
- Activity (Percent Increase Proliferation of hFDPCs (%)): D (increased proliferation of hFDPCs equals to or larger than 8%)

SMILES: CN(C)CN(C)C [VII-11, N,N,N′,N′-tetramethylmethanediamine]
- Activity (Percent Increase Proliferation of hFDPCs (%)): D (increased proliferation of hFDPCs equals to or larger than 8%)

SMILES: CC(NC(=O)CNC(=O)c1cccs1)c1ccccc1 (stereo not shown) [VI-1, N-[2-oxo-2-(1-phenylethylamino)ethyl]thiophene-2-carboxamide]
- Activity (Percent Increase Proliferation of hFDPCs (%)): D (increased proliferation of hFDPCs equals to or larger than 8%)

SMILES: O=C(CSc1nnc(SCC(=O)N2CCCC2)s1)N1CCCC1 [VII-35, 2-[[5-(2-oxo-2-pyrrolidin-1-ylethyl)sulfanyl-1,3,4-thiadiazol-2-yl]sulfanyl]-1-pyrrolidin-1-ylethanone]
- Activity (Percent Increase Proliferation of hFDPCs (%)): C (increased proliferation of hFDPCs equals to or larger than 4% and less than 8%)

SMILES: Cn1nnnc1SCC(=O)N1CCCCC1 [VII-37, 2-(1-methyltetrazol-5-yl)sulfanyl-1-piperidin-1-ylethanone]
- Activity (Percent Increase Proliferation of hFDPCs (%)): C (increased proliferation of hFDPCs equals to or larger than 4% and less than 8%)

SMILES: Cc1c(Br)c([N+](=O)[O-])nn1CC(=O)N1CCCCCC1 [VII-12, 1-(azepan-1-yl)-2-(4-bromo-5-methyl-3-nitropyrazol-1-yl)ethanone]
- Activity (Percent Increase Proliferation of hFDPCs (%)): C (increased proliferation of hFDPCs equals to or larger than 4% and less than 8%)

SMILES: CC(O)CNC(=O)c1ccc2[nH]c3c(c2c1)CCCC3 (stereo not shown) [IV-4, N-(2-hydroxypropyl)-6,7,8,9-tetrahydro-5H-carbazole-3-carboxamide]
- Activity (Percent Increase Proliferation of hFDPCs (%)): C (increased proliferation of hFDPCs equals to or larger than 4% and less than 8%)

SMILES: CCN(CC)CC(=O)NC(C)c1ccccc1 (stereo not shown) [II-3, 2-(diethylamino)-N-(1-phenylethyl)acetamide]
- Activity (Percent Increase Proliferation of hFDPCs (%)): A (increased proliferation of hFDPCs of less than 1%)

SMILES: CCC(=O)NC(C)c1ccccc1 (stereo not shown) [II-4, N-(1-phenylethyl)propanamide]
- Activity (Percent Increase Proliferation of hFDPCs (%)): C (increased proliferation of hFDPCs equals to or larger than 4% and less than 8%)

SMILES: COc1ccc(CN2CCN(C(=O)CCn3ccnc3)CC2=O)cc1 [VII-32, 4-(3-imidazol-1-ylpropanoyl)-1-[(4-methoxyphenyl)methyl]piperazin-2-one]
- Activity (Percent Increase Proliferation of hFDPCs (%)): A (increased proliferation of hFDPCs of less than 1%)

SMILES: CCCC(=O)NCc1ccc(OC)cc1 [II-2, N-[(4-methoxyphenyl)methyl]butanamide]
- Activity (Percent Increase Proliferation of hFDPCs (%)): B (increased proliferation of hFDPCs equals to or larger than 1% and less than 4%)

SMILES: COc1ccccc1CN1CCNC(=O)C1CC(=O)N(C)C (stereo not shown) [VII-22, 2-[1-[(2-methoxyphenyl)methyl]-3-oxopiperazin-2-yl]-N,N-dimethylacetamide]
- Activity (Percent Increase Proliferation of hFDPCs (%)): D (increased proliferation of hFDPCs equals to or larger than 8%)

SMILES: CCNC(=O)CCSc1nc(C)cc(C)n1 [VII-19, 3-(4,6-dimethylpyrimidin-2-yl)sulfanyl-N-ethylpropanamide]
- Activity (Percent Increase Proliferation of hFDPCs (%)): C (increased proliferation of hFDPCs equals to or larger than 4% and less than 8%)

SMILES: CC1CNCCN1 (stereo not shown) [VII-8, 2-methylpiperazine]
- Activity (Percent Increase Proliferation of hFDPCs (%)): D (increased proliferation of hFDPCs equals to or larger than 8%)

SMILES: COc1ccc(CCCNC(=O)C(C)C)cc1 [II-6, N-[3-(4-methoxyphenyl)propyl]-2-methylpropanamide]
- Activity (Percent Increase Proliferation of hFDPCs (%)): C (increased proliferation of hFDPCs equals to or larger than 4% and less than 8%)

SMILES: COc1cc(OC)nc(OC)n1 [VII-14, 2,4,6-trimethoxypyrimidine]
- Activity (Percent Increase Proliferation of hFDPCs (%)): B (increased proliferation of hFDPCs equals to or larger than 1% and less than 4%)

SMILES: CC1(C)CC(C(N)=O)C(C)(C)N1 (stereo not shown) [VII-17, 2,2,5,5-tetramethylpyrrolidine-3-carboxamide]
- Activity (Percent Increase Proliferation of hFDPCs (%)): D (increased proliferation of hFDPCs equals to or larger than 8%)

SMILES: O=C(O)CN1CCC(NC(=O)C2CCCc3c2[nH]c2ccccc32)CC1 (stereo not shown) [IV-5, 2-[4-(2,3,4,9-tetrahydro-1H-carbazole-1-carbonylamino)piperidin-1-yl]acetic acid]
- Activity (Percent Increase Proliferation of hFDPCs (%)): D (increased proliferation of hFDPCs equals to or larger than 8%)

SMILES: CCNC(=O)NC1CN(Cc2ccccc2N(C)C)C[C@@H]1OC (stereo partly drawn) [VII-38, 1-[(4S)-1-[[2-(dimethylamino)phenyl]methyl]-4-methoxypyrrolidin-3-yl]-3-ethylurea]
- Activity (Percent Increase Proliferation of hFDPCs (%)): D (increased proliferation of hFDPCs equals to or larger than 8%)

SMILES: CC(C)CC(=O)NC(C)c1ccccc1 (stereo not shown) [II-5, 3-methyl-N-(1-phenylethyl)butanamide]
- Activity (Percent Increase Proliferation of hFDPCs (%)): D (increased proliferation of hFDPCs equals to or larger than 8%)

SMILES: CN(C)CCCn1c(=O)[nH]c2ccccc2c1=O [V-2, 3-[3-(dimethylamino)propyl]-1H-quinazoline-2,4-dione]
- Activity (Percent Increase Proliferation of hFDPCs (%)): A (increased proliferation of hFDPCs of less than 1%)

SMILES: COc1ccc(CN2CCN(C(=O)Cn3ccnc3)CC2)cc1 [VII-33, 2-imidazol-1-yl-1-[4-[(4-methoxyphenyl)methyl]piperazin-1-yl]ethanone]
- Activity (Percent Increase Proliferation of hFDPCs (%)): C (increased proliferation of hFDPCs equals to or larger than 4% and less than 8%)

SMILES: CNC(=O)C(CC(C)C)NC(=O)c1sccc1OC (stereo not shown) [VI-3, 3-methoxy-N-[4-methyl-1-(methylamino)-1-oxopentan-2-yl]thiophene-2-carboxamide]
- Activity (Percent Increase Proliferation of hFDPCs (%)): D (increased proliferation of hFDPCs equals to or larger than 8%)

SMILES: CCn1c(SCC(=O)N2CCCCCC2)nnc1-c1ccncc1 [I-5, 1-(azepan-1-yl)-2-[(4-ethyl-5-pyridin-4-yl-1,2,4-triazol-3-yl)sulfanyl]ethanone]
- Activity (Percent Increase Proliferation of hFDPCs (%)): C (increased proliferation of hFDPCs equals to or larger than 4% and less than 8%)

SMILES: NC(=O)C1CCCCC1NC(=O)c1ccc(Cl)cn1 (stereo not shown) [VII-21, N-(2-carbamoylcyclohexyl)-5-chloropyridine-2-carboxamide]
- Activity (Percent Increase Proliferation of hFDPCs (%)): D (increased proliferation of hFDPCs equals to or larger than 8%)

SMILES: Nn1c(SCC(=O)N2CCCC2)nnc1C1CCCCC1 [I-4, 2-[(4-amino-5-cyclohexyl-1,2,4-triazol-3-yl)sulfanyl]-1-pyrrolidin-1-ylethanone]
- Activity (Percent Increase Proliferation of hFDPCs (%)): C (increased proliferation of hFDPCs equals to or larger than 4% and less than 8%)

SMILES: CC(=O)NC1CCN(Cc2ccccc2N(C)C)CC1 [VII-20, N-[1-[[2-(dimethylamino)phenyl]methyl]piperidin-4-yl]acetamide]
- Activity (Percent Increase Proliferation of hFDPCs (%)): D (increased proliferation of hFDPCs equals to or larger than 8%)

SMILES: COC(=O)Cn1c(=O)[nH]c2ccccc2c1=O [V-4, methyl 2-(2,4-dioxo-1H-quinazolin-3-yl)acetate]
- Activity (Percent Increase Proliferation of hFDPCs (%)): A (increased proliferation of hFDPCs of less than 1%)

SMILES: CC(C)n1cnnc1 [VII-27, 4-propan-2-yl-1,2,4-triazole]
- Activity (Percent Increase Proliferation of hFDPCs (%)): D (increased proliferation of hFDPCs equals to or larger than 8%)

SMILES: CC(N)c1nnnn1C (stereo not shown) [VII-15, 1-(1-methyltetrazol-5-yl)ethanamine]
- Activity (Percent Increase Proliferation of hFDPCs (%)): D (increased proliferation of hFDPCs equals to or larger than 8%)

SMILES: NN1CCNCC1 [VII-2, piperazin-1-amine]
- Activity (Percent Increase Proliferation of hFDPCs (%)): D (increased proliferation of hFDPCs equals to or larger than 8%)

SMILES: CC(NC(=O)C(=O)NC(C)c1ccccc1)c1ccccc1 (stereo not shown) [III-4, N,N′-bis(1-phenylethyl)oxamide]
- Activity (Percent Increase Proliferation of hFDPCs (%)): B (increased proliferation of hFDPCs equals to or larger than 1% and less than 4%)

SMILES: O=C(CSc1nnnn1-c1ccc(O)cc1)N1CCCCC1 [VII-36, 2-[1-(4-hydroxyphenyl)tetrazol-5-yl]sulfanyl-1-piperidin-1-ylethanone]
- Activity (Percent Increase Proliferation of hFDPCs (%)): D (increased proliferation of hFDPCs equals to or larger than 8%)

SMILES: CCOC(OCC)OCC [VII-6, diethoxymethoxyethane]
- Activity (Percent Increase Proliferation of hFDPCs (%)): D (increased proliferation of hFDPCs equals to or larger than 8%)

SMILES: COCCOCCCn1c(=O)[nH]c2ccccc2c1=O [V-5, 3-[3-(2-methoxyethoxy)propyl]-1H-quinazoline-2,4-dione]
- Activity (Percent Increase Proliferation of hFDPCs (%)): D (increased proliferation of hFDPCs equals to or larger than 8%)

SMILES: CCn1c(NN)nc2ccccc2c1=O [VII-24, 3-ethyl-2-hydrazinylquinazolin-4-one]
- Activity (Percent Increase Proliferation of hFDPCs (%)): D (increased proliferation of hFDPCs equals to or larger than 8%)

SMILES: Cc1ccsc1C(=O)NC(C)C [VI-2, 3-methyl-N-propan-2-ylthiophene-2-carboxamide]
- Activity (Percent Increase Proliferation of hFDPCs (%)): B (increased proliferation of hFDPCs equals to or larger than 1% and less than 4%)

SMILES: CC(=O)OC(Cn1ccnc1)c1ccccc1 (stereo not shown) [VII-28, (2-imidazol-1-yl-1-phenylethyl) acetate]
- Activity (Percent Increase Proliferation of hFDPCs (%)): A (increased proliferation of hFDPCs of less than 1%)

SMILES: CN1CCCNS1(=O)=O [VII-9, 2-methyl-1,2,6-thiadiazinane 1,1-dioxide]
- Activity (Percent Increase Proliferation of hFDPCs (%)): D (increased proliferation of hFDPCs equals to or larger than 8%)

SMILES: CCCNC(=O)CCNC(=O)C(C)Oc1ccc(OC)cc1 (stereo not shown) [VII-25, 2-(4-methoxyphenoxy)-N-[3-oxo-3-(propylamino)propyl]propanamide]
- Activity (Percent Increase Proliferation of hFDPCs (%)): B (increased proliferation of hFDPCs equals to or larger than 1% and less than 4%)

SMILES: CC(NC(=O)COc1ccc(CN(C)S(C)(=O)=O)cc1)c1ccccc1 (stereo not shown) [VII-26, 2-[4-[[methyl(methylsulfonyl)amino]methyl]phenoxy]-N-(1-phenylethyl)acetamide]
- Activity (Percent Increase Proliferation of hFDPCs (%)): D (increased proliferation of hFDPCs equals to or larger than 8%)
